Data published in PubChem BioAssay (NCI).
Values joined by “and” are separate entries in the source; they are usually repeats but may differ in a detail not shown here. Equal entries are not always repeated.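 All cell lines were grown in 96-well plates and treated with compound for 48 hours. At the TGI there is no net growth.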

Key:
Assay in all cases: NCI-60 cell line screen, 48 h
DMS 273 small cell lung = system: DMS 273 small cell lung
KM20L2 colon = system: KM20L2 colon
XF 498 CNS = system: XF 498 CNS
HOP-18 NSCLC = system: HOP-18 NSCLC
LXFL 529 NSCLC = system: LXFL 529 NSCLC
RXF-631 renal = system: RXF-631 renal

Row | Compound | TGI (DMS 273 small cell lung) | TGI (KM20L2 colon) | TGI (XF 498 CNS) | TGI (HOP-18 NSCLC) | TGI (LXFL 529 NSCLC) | TGI (RXF-631 renal)
1 | COc1ccc(C2=C(Cl)c3cc(OC)c(OC)cc3C2)cc1OC | > 100 µM | > 100 µM | > 100 µM | > 100 µM | > 100 µM | 
2 | O=C(NN1C(=O)C(Cl)C1c1ccccc1Cl)c1ccccc1O (stereo not drawn) |  |  | > 100 µM | > 100 µM | > 100 µM | 
3 | CC1=NN(C(=O)Cc2ccccc2)C(=O)/C1=C\c1ccccc1O |  | > 100 µM | > 100 µM |  | > 100 µM | 
4 | Cc1ccc(NC(=O)/C(=N/NC(=O)C[N+](C)(C)C)c2nc3ccccc3[nH]c2=O)cc1 | > 100 µM | > 100 µM |  | > 100 µM | > 100 µM | > 100 µM
5 | CC(=O)OCCOCNC(=S)N/N=C(\C)c1cccs1 | > 100 µM | > 100 µM | > 100 µM | > 100 µM | > 100 µM | 
6 | C[N+](C)(C)CC(=O)N/N=C(/Cc1nc2ccc([N+](=O)[O-])cc2[nH]c1=O)C(=O)Nc1cc(C(F)(F)F)ccc1Cl |  | > 100 µM |  |  |  | > 100 µM
7 | COc1cc2c(c(OC)c1OC)-c1ccc(SC)c(=O)cc1[C@@H](NCc1cccc([N+](=O)[O-])c1)CC2 |  | < 0.01 µM |  | > 100 µM | > 100 µM | 
8 | CCOC(OCC)C(CC)[Se]c1ccccc1 (stereo not drawn) | 28.4 µM | 38.2 µM | > 100 µM | > 100 µM | > 100 µM | > 100 µM
9 | COc1cc2c(c(OC)c1OC)-c1ccc(SC)c(=O)cc1[C@@H](NC(=O)c1ccc([N+](=O)[O-])cc1)CC2 | 25 µM and > 100 µM |  | 25 µM |  |  | > 100 µM
10 | Cn1cnc(SC2=C3C(=O)C=C4S[C@H]5C[C@]42c2c(c(O)c4c6c2=[N+]3CCC=6C=N4)N5)c1CC(N)C(=O)O (stereo partly drawn) | 26 µM | 16.6 µM | 28.7 µM | > 100 µM | 27.1 µM | 
11 | Cn1nc2ccc3nccc(NCCNCCO)c3c2n1 |  | > 100 µM | > 100 µM |  | > 100 µM | 
12 | COc1cc(C(O)C(=O)c2cnc3cc([N+](=O)[O-])ccc3n2)ccc1O (stereo not drawn) | > 100 µM | > 100 µM | > 100 µM |  | > 100 µM | > 100 µM
13 | COc1ccc(CCCN2c3ccccc3Sc3ccccc32)cc1 | > 100 µM | > 100 µM | > 100 µM | > 100 µM | > 100 µM | 
